Laboratory results reported in PMC6499206, “Quantification of Volatile Metabolites Derived From Garlic (Allium sativum) in Human Urine” (Frontiers in Nutrition, 2019).

Assay: Quantification of garlic-derived metabolites in human urine after ingestion of 3 g raw garlic (SIDA, SAFE, HRGC-MS / HRGC-GC-MS)
Assay type: in vivo
Details: for metabolite concentration in urine / metabolite concentration in urine, creatinine-normalized: 3 g raw garlic
Outline: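 Quantification used stable isotope dilution (²H3-AMS, -AMSO, -AMSO2 standards), SAFE distillation at 50°C of DCM-treated urine, and GC-MS on a DB-FFAP column, with creatinine from the Jaffé reaction at 492 nm. Urine came from 18 volunteers avoiding sulfur-rich foods, sampled before and up to 24 h after eating 3 g raw garlic.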

C=CC[S+](C)[O-] (stereo not shown) [AMSO, allyl methyl sulfoxide]
concentration in urine compared with human milk (3 g raw garlic in both studies, milk data ref 20): about three times as high
metabolite concentration in urine (U I, 0.5 h post (0.55 h)): 168.4 µg/kg
metabolite concentration in urine, creatinine-normalized (U I, 0.5 h post (0.55 h)): 23.6 µg/mmol creatinine
metabolite concentration in urine (U I, 1 h post (1.03 h)): 191.0 µg/kg
metabolite concentration in urine, creatinine-normalized (U I, 1 h post (1.03 h)): 205.9 µg/mmol creatinine
metabolite concentration in urine (U I, 2 h post (2.05 h)): 227.6 µg/kg
metabolite concentration in urine, creatinine-normalized (U I, 2 h post (2.05 h)): 112.5 µg/mmol creatinine
metabolite concentration in urine (U I, 4 h post (4.05 h)): 165.7 µg/kg
metabolite concentration in urine, creatinine-normalized (U I, 4 h post (4.05 h)): 19.1 µg/mmol creatinine
metabolite concentration in urine (U I, 6 h post (6.05 h)): 119.1 µg/kg
metabolite concentration in urine, creatinine-normalized (U I, 6 h post (6.05 h)): 13.2 µg/mmol creatinine
metabolite concentration in urine (U I, 8 h post (8.05 h)): 41.8 µg/kg
metabolite concentration in urine, creatinine-normalized (U I, 8 h post (8.05 h)): 5.8 µg/mmol creatinine
metabolite concentration in urine (U I, 24 h post (25.55 h)): 1.6 µg/kg
metabolite concentration in urine, creatinine-normalized (U I, 24 h post (25.55 h)): 0.3 µg/mmol creatinine
metabolite concentration in urine (U I, pre (-0.03 h)): < LOD^2
metabolite concentration in urine, creatinine-normalized (U I, pre (-0.03 h)): < LOD^2
metabolite concentration in urine (U II, 0.5 h post (0.50 h)): 147.7 µg/kg
metabolite concentration in urine, creatinine-normalized (U II, 0.5 h post (0.50 h)): 14.0 µg/mmol creatinine
metabolite concentration in urine (U II, 1 h post (1.00 h)): 133.4 µg/kg
metabolite concentration in urine, creatinine-normalized (U II, 1 h post (1.00 h)): 51.2 µg/mmol creatinine
metabolite concentration in urine (U II, 2 h post (2.00 h)): 63.7 µg/kg
metabolite concentration in urine, creatinine-normalized (U II, 2 h post (2.00 h)): 62.6 µg/mmol creatinine
metabolite concentration in urine (U II, 4 h post (4.00 h)): 64.8 µg/kg
metabolite concentration in urine, creatinine-normalized (U II, 4 h post (4.00 h)): 12.0 µg/mmol creatinine
metabolite concentration in urine (U II, 6 h post (6.00 h)): 33.4 µg/kg
metabolite concentration in urine, creatinine-normalized (U II, 6 h post (6.00 h)): 3.7 µg/mmol creatinine
metabolite concentration in urine (U II, 8 h post (8.00 h)): 15.2 µg/kg
metabolite concentration in urine, creatinine-normalized (U II, 8 h post (8.00 h)): 1.8 µg/mmol creatinine
metabolite concentration in urine (U II, 24 h post (24.12 h)): traces^2
metabolite concentration in urine, creatinine-normalized (U II, 24 h post (24.12 h)): traces^2
metabolite concentration in urine (U II, pre (-0.13 h)): < LOD^2
metabolite concentration in urine, creatinine-normalized (U II, pre (-0.13 h)): < LOD^2
metabolite concentration in urine (U III, 0.5 h post (0.53 h)): 124.4 µg/kg
metabolite concentration in urine, creatinine-normalized (U III, 0.5 h post (0.53 h)): 74.5 µg/mmol creatinine
metabolite concentration in urine (U III, 1 h post (1.07 h)): 136.4 µg/kg
metabolite concentration in urine, creatinine-normalized (U III, 1 h post (1.07 h)): 192.7 µg/mmol creatinine
metabolite concentration in urine (U III, 2 h post (2.18 h)): 214.7 µg/kg
metabolite concentration in urine, creatinine-normalized (U III, 2 h post (2.18 h)): 133.1 µg/mmol creatinine
metabolite concentration in urine (U III, 4 h post (4.35 h)): 123.7 µg/kg
metabolite concentration in urine, creatinine-normalized (U III, 4 h post (4.35 h)): 47.0 µg/mmol creatinine
metabolite concentration in urine (U III, 6 h post (6.35 h)): 62.3 µg/kg
metabolite concentration in urine, creatinine-normalized (U III, 6 h post (6.35 h)): 12.2 µg/mmol creatinine
metabolite concentration in urine (U III, 8 h post (8.43 h)): 29.0 µg/kg
metabolite concentration in urine, creatinine-normalized (U III, 8 h post (8.43 h)): 5.2 µg/mmol creatinine
metabolite concentration in urine (U III, 24 h post (23.90 h)): 3.0 µg/kg
metabolite concentration in urine, creatinine-normalized (U III, 24 h post (23.90 h)): 0.5 µg/mmol creatinine
metabolite concentration in urine (U III, pre (-0.03 h)): 4.6 µg/kg
metabolite concentration in urine, creatinine-normalized (U III, pre (-0.03 h)): 0.8 µg/mmol creatinine
metabolite concentration in urine (U IV, 0.5 h post (0.55 h)): 144.3 µg/kg
metabolite concentration in urine, creatinine-normalized (U IV, 0.5 h post (0.55 h)): 30.7 µg/mmol creatinine
metabolite concentration in urine (U IV, 1 h post (1.05 h)): 141.0 µg/kg
metabolite concentration in urine, creatinine-normalized (U IV, 1 h post (1.05 h)): 117.5 µg/mmol creatinine
metabolite concentration in urine (U IV, 2 h post (2.12 h)): 129.7 µg/kg
metabolite concentration in urine, creatinine-normalized (U IV, 2 h post (2.12 h)): 82.3 µg/mmol creatinine
metabolite concentration in urine (U IV, 4 h post (4.05 h)): 108.9 µg/kg
metabolite concentration in urine, creatinine-normalized (U IV, 4 h post (4.05 h)): 22.6 µg/mmol creatinine
metabolite concentration in urine (U IV, 6 h post (6.08 h)): 63.5 µg/kg
metabolite concentration in urine, creatinine-normalized (U IV, 6 h post (6.08 h)): 4.6 µg/mmol creatinine
metabolite concentration in urine (U IV, 8 h post (8.05 h)): 31.9 µg/kg
metabolite concentration in urine, creatinine-normalized (U IV, 8 h post (8.05 h)): 6.7 µg/mmol creatinine
metabolite concentration in urine (U IV, 24 h post (24.03 h)): 3.8 µg/kg
metabolite concentration in urine, creatinine-normalized (U IV, 24 h post (24.03 h)): 0.4 µg/mmol creatinine
metabolite concentration in urine (U IV, pre (-0.05 h)): < LOD^2
metabolite concentration in urine, creatinine-normalized (U IV, pre (-0.05 h)): < LOD^2
metabolite concentration in urine (U IX, 0.5 h post (0.67 h)): 164.4 µg/kg
metabolite concentration in urine, creatinine-normalized (U IX, 0.5 h post (0.67 h)): 156.1 µg/mmol creatinine
metabolite concentration in urine (U IX, 1 h post (1.17 h)): 332.3 µg/kg
metabolite concentration in urine, creatinine-normalized (U IX, 1 h post (1.17 h)): 344.1 µg/mmol creatinine
metabolite concentration in urine (U IX, 2 h post (1.83 h)): 337.6 µg/kg
metabolite concentration in urine, creatinine-normalized (U IX, 2 h post (1.83 h)): 320.5 µg/mmol creatinine
metabolite concentration in urine (U IX, 4 h post (4.17 h)): 293.5 µg/kg
metabolite concentration in urine, creatinine-normalized (U IX, 4 h post (4.17 h)): 56.6 µg/mmol creatinine
metabolite concentration in urine (U IX, 6 h post (6.08 h)): 182.9 µg/kg
metabolite concentration in urine, creatinine-normalized (U IX, 6 h post (6.08 h)): 57.5 µg/mmol creatinine
metabolite concentration in urine (U IX, 8 h post (8.08 h)): 100.1 µg/kg
metabolite concentration in urine, creatinine-normalized (U IX, 8 h post (8.08 h)): 7.2 µg/mmol creatinine
metabolite concentration in urine (U IX, 24 h post (24.00 h)): 30.4 µg/kg
metabolite concentration in urine, creatinine-normalized (U IX, 24 h post (24.00 h)): 3.5 µg/mmol creatinine
metabolite concentration in urine (U IX, pre (-0.08 h)): < LOD^2
metabolite concentration in urine, creatinine-normalized (U IX, pre (-0.08 h)): < LOD^2
metabolite concentration in urine (U V, 0.5 h post (0.50 h)): 84.4 µg/kg
metabolite concentration in urine, creatinine-normalized (U V, 0.5 h post (0.50 h)): 123.5 µg/mmol creatinine
metabolite concentration in urine (U V, 1 h post (1.00 h)): 122.6 µg/kg
metabolite concentration in urine, creatinine-normalized (U V, 1 h post (1.00 h)): 146.3 µg/mmol creatinine
metabolite concentration in urine (U V, 2 h post (2.00 h)): 104.6 µg/kg
metabolite concentration in urine, creatinine-normalized (U V, 2 h post (2.00 h)): 124.9 µg/mmol creatinine
metabolite concentration in urine (U V, 4 h post (4.00 h)): 104.9 µg/kg
metabolite concentration in urine, creatinine-normalized (U V, 4 h post (4.00 h)): 34.0 µg/mmol creatinine
metabolite concentration in urine (U V, 6 h post (6.00 h)): 68.8 µg/kg
metabolite concentration in urine, creatinine-normalized (U V, 6 h post (6.00 h)): 13.8 µg/mmol creatinine
metabolite concentration in urine (U V, 8 h post (8.00 h)): 29.0 µg/kg
metabolite concentration in urine, creatinine-normalized (U V, 8 h post (8.00 h)): 13.4 µg/mmol creatinine
metabolite concentration in urine (U V, 24 h post (24.00 h)): 1.9 µg/kg
metabolite concentration in urine, creatinine-normalized (U V, 24 h post (24.00 h)): 0.3 µg/mmol creatinine
metabolite concentration in urine (U V, pre (-0.05 h)): < LOD^2
metabolite concentration in urine, creatinine-normalized (U V, pre (-0.05 h)): < LOD^2
metabolite concentration in urine (U VI, 0.5 h post (0.50 h)): 193.1 µg/kg
metabolite concentration in urine, creatinine-normalized (U VI, 0.5 h post (0.50 h)): 88.3 µg/mmol creatinine
metabolite concentration in urine (U VI, 1 h post (1.00 h)): 203.5 µg/kg
metabolite concentration in urine, creatinine-normalized (U VI, 1 h post (1.00 h)): 169.6 µg/mmol creatinine
metabolite concentration in urine (U VI, 2 h post (2.00 h)): 143.4 µg/kg
metabolite concentration in urine, creatinine-normalized (U VI, 2 h post (2.00 h)): 129.2 µg/mmol creatinine
metabolite concentration in urine (U VI, 4 h post (4.00 h)): 134.9 µg/kg
metabolite concentration in urine, creatinine-normalized (U VI, 4 h post (4.00 h)): 39.0 µg/mmol creatinine
metabolite concentration in urine (U VI, 6 h post (6.00 h)): 188.9 µg/kg
metabolite concentration in urine, creatinine-normalized (U VI, 6 h post (6.00 h)): 35.0 µg/mmol creatinine
metabolite concentration in urine (U VI, 8 h post (8.00 h)): 79.0 µg/kg
metabolite concentration in urine, creatinine-normalized (U VI, 8 h post (8.00 h)): 15.8 µg/mmol creatinine
metabolite concentration in urine (U VI, 24 h post (24.17 h)): 139.8 µg/kg
metabolite concentration in urine, creatinine-normalized (U VI, 24 h post (24.17 h)): 9.6 µg/mmol creatinine
metabolite concentration in urine (U VI, pre (-0.05 h)): < LOD^2
metabolite concentration in urine, creatinine-normalized (U VI, pre (-0.05 h)): < LOD^2
metabolite concentration in urine (U VII, 0.5 h post (0.50 h)): 133.2 µg/kg
metabolite concentration in urine, creatinine-normalized (U VII, 0.5 h post (0.50 h)): 125.0 µg/mmol creatinine
